Test results: ChEMBL document CHEMBL1138686, “Discovery of potent antagonists of the antiapoptotic protein XIAP for the treatment of cancer” (J Med Chem, 2004)
pEC50, pKd: −log10 of the molar value. Values joined by “and” are separate entries in the source; they are usually repeats but may differ in a detail not shown here. Equal values may be shown once. Numbered stars: 1 amine (or outer) side, 2 acyl side, 3 side chain; on linkers, the order of the positions; unused ones are H or OH. Square brackets hold non-standard residues; d marks the D form. Peptide text beside a SMILES is read from it. ξ: configuration not given here. Phe(4-Cl) = N[C@@H](Cc1ccc(Cl)cc1)C(=O)O; 1Nal = N[C@@H](Cc1cccc2ccccc12)C(=O)O; 2Nal = N[C@@H](Cc1ccc2ccccc2c1)C(=O)O; X1 = O=C([C@@H]1CC(O)CN1[*:1])[*:2]; hPhe = N[C@@H](CCc1ccccc1)C(=O)O; Phg = N[C@H](C(=O)O)c1ccccc1; Tle = CC(C)(C)[C@H](N)C(=O)O; Nle = CCCC[C@H](N)C(=O)O; ξPip = O=C(O)C1CCCCN1; Aib = CC(C)(N)C(=O)O; ξNMeA = CNC(C)C(=O)O; ξAze = O=C(O)C1CCN1; Sar = CNCC(=O)O

Tests used:
[1] = biological target: T1, E3 ubiquitin-protein ligase XIAP (Homo sapiens, UniProt P98170); assay: Binding affinity to the BIR3 domain of X-linked IAP
[2] = The compound was tested for toxicity against human ovarian cancer cell line SK-OV-3; format: functional, cell-based; settings: cancer cell lines
[3] = The compound was tested for toxicity against human breast cancer cell line MDA-MB-231; format: functional, cell-based; settings: cancer cell lines
[4] = The compound was tested for toxicity against human NSCL cancer cell line NCI-H23; format: functional, cell-based; settings: cancer cell lines
[5] = The compound was tested for toxicity against human NSCL cancer cell line NCI-H522; format: functional, cell-based; settings: cancer cell lines
[6] = The compound was tested for toxicity against human breast cancer cell line BT-549; format: functional, cell-based; settings: cancer cell lines
[7] = The compound was tested for toxicity against human renal cancer cell line RXF-393; format: functional, cell-based; settings: cancer cell lines
HL-60 = assay: cells; settings: Homo sapiens
Description: The compound was tested for toxicity against human leukemia cancer cell line HL-60

SK-MEL-5 = assay: cells; settings: Homo sapiens
Description: The compound was tested for toxicity against human melanoma cancer cell line SK-MEL-5

[8] = biological target: T1, E3 ubiquitin-protein ligase XIAP; assay: Relief of caspase inhibition in reconstituted assay (APAF-1, caspase-9, procaspase-3) with BIR3 domain of XIAP
[9] = biological target: T1, E3 ubiquitin-protein ligase XIAP; assay: Relief of caspase inhibition in reconstituted assay (APAF-1, caspase-9, procaspase-3) with XIAP

T1 sequence (P98170 whole entry, the tested form may be a part): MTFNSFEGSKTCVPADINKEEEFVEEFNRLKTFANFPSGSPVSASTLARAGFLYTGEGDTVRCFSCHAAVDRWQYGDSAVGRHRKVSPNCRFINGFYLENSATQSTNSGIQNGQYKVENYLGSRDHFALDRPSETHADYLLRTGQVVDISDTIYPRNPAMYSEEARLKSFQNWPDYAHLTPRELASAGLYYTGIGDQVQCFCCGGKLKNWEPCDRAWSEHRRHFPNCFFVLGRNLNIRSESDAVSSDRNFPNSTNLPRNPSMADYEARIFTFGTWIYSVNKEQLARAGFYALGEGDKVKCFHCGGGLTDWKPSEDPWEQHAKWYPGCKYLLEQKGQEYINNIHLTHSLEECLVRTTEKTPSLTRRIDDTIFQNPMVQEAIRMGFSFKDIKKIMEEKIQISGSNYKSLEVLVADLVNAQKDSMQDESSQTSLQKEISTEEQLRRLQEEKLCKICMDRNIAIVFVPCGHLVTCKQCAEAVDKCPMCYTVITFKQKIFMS

Molecule | pKd [1] | other results
CC(C(=O)N1CCC[C@H]1C(=O)N[C@@H](Cc1ccccc1)C(=O)N[C@@H](Cc1ccc(O)cc1)C(=O)O)N(C)C(=O)[C@H](C)N (some centres not stated) (H-A[ξNMeA]PFY-OH) | < 4.70 | –
H-AVPYY-OH | 6.52 | –
H-GVPFY-OH | 5.02 | –
CC(C)[C@@H](C(=O)N1CCC[C@H]1C(=O)N[C@@H](Cc1ccccc1)C(=O)N[C@@H](Cc1ccc(O)cc1)C(=O)O)N(C)C | 5.06 | –
CC(C)[C@H](NC(=O)[C@H](C)N)C(=O)N1CCC[C@H]1C(=O)N[C@@H](Cc1ccc2ccccc2c1)C(=O)N[C@@H](Cc1ccc(O)cc1)C(=O)O (H-AVP[2Nal]Y-OH) | 6.72 | –
CC(C)C[C@@H](NC(=O)[C@H](C)N)C(=O)N1CCC[C@H]1C(=O)N[C@@H](Cc1ccccc1)C(=O)N[C@@H](Cc1ccc(O)cc1)C(=O)O | 6.80 | –
H-VVPFY-OH | 6.05 | –
CC(C)[C@H](NC(=O)[C@H](C)N)C(=O)N1CCC[C@H]1C(=O)N[C@@H](Cc1ccc(Cl)cc1)C(=O)N[C@@H](Cc1ccc(O)cc1)C(=O)O (H-AVP[Phe(4-Cl)]Y-OH) | 6.74 | –
CC(C)[C@H](NC(=O)[C@H](C)N)C(=O)N1CCC[C@H]1C(=O)NC(C)(C)C(=O)N[C@@H](Cc1ccc(O)cc1)C(=O)O (H-AVP[Aib]Y-OH) | 5.17 | –
CN[C@@H](C)C(=O)N[C@H](C(=O)N1CCC[C@H]1C(=O)N[C@H]1CCCc2ccccc21)C(C)(C)C | – | pEC50 [2]: 5.25; pEC50 [3]: 5.52
CN[C@@H](C)C(=O)N[C@H](C(=O)N1CCC[C@H]1C(=O)N[C@@H]1CCCc2ccccc21)C1CCCCC1 | – | pEC50 [4]: 5.82; pEC50 [2]: 5.89; pEC50 [3]: 8.00; pEC50 [5]: 5.70; pEC50 [6]: 8.15; pEC50 [7]: 5.96; pEC50 (HL-60): 6.72; pEC50 (SK-MEL-5): 6.54
H-AVPFG-OH | 5.47 | –
CN[C@@H](C)C(=O)N[C@H](C(=O)N1CCC[C@H]1C(=O)N[C@@H]1CCCc2ccccc21)C(C)(C)C | – | pEC50 [4]: 5.28; pEC50 [2]: 5.82; pEC50 [3]: 7.22; pEC50 [5]: 5.77; pEC50 [6]: 8.00; pEC50 [7]: 6.09; pEC50 (HL-60): 6.00; pEC50 (SK-MEL-5): 5.89
H-AVGFY-OH | 5.52 | –
C[C@H](N)C(=O)N[C@H](C(=O)N1CCC[C@H]1C(=O)N[C@@H](Cc1ccccc1)C(=O)N[C@@H](Cc1ccc(O)cc1)C(=O)O)C(C)(C)C (H-A[Tle]PFY-OH) | 7.40 | –
CC(C)[C@H](NC(=O)[C@H](C)N)C(=O)N1CC(O)C[C@H]1C(=O)N[C@@H](Cc1ccccc1)C(=O)N[C@@H](Cc1ccc(O)cc1)C(=O)O (some centres not stated) (H-AV[X1]FY-OH) | 6.10 | –
H-AVPIY-OH | 6.44 | –
CC(C)[C@H](NC(=O)[C@H](C)N)C(=O)N1CCCCC1C(=O)N[C@@H](Cc1ccccc1)C(=O)N[C@@H](Cc1ccc(O)cc1)C(=O)O (some centres not stated) (H-AV[ξPip]FY-OH) | 6.40 | –
CC(C(=O)N[C@H](C(=O)N1C[C@@H](Oc2ccccc2)C[C@H]1C(=O)NC1CCCc2ccccc21)C(C)(C)C)N(C)C (some centres not stated) | < 6.00 | pEC50 [8]: < 4.00; pEC50 [9]: < 4.00

Molecule | pKd [1] | other results
C[C@H](N)C(=O)NC(C)(C)C(=O)N1CCC[C@H]1C(=O)N[C@@H](Cc1ccccc1)C(=O)N[C@@H](Cc1ccc(O)cc1)C(=O)O (H-A[Aib]PFY-OH) | < 4.70 | –
CCCC[C@H](NC(=O)[C@@H]1CCCN1C(=O)[C@@H](NC(=O)[C@H](C)N)C(C)C)C(=O)N[C@@H](Cc1ccc(O)cc1)C(=O)O (H-AVP[Nle]Y-OH) | 6.05 | –
CNC(C)C(=O)N[C@H](C(=O)N1CCC[C@H]1C(=O)N[C@@H]1CCCc2ccccc21)C(C)(C)C (single isomer, unassigned) | – | pEC50 [2]: < 4.30; pEC50 [3]: 5.08
H-AKPFY-OH | 7.30 | –
CC(C)[C@H](NC(=O)[C@H](C)N)C(=O)N1CCC[C@H]1C(=O)N[C@@H](CCc1ccccc1)C(=O)N[C@@H](Cc1ccc(O)cc1)C(=O)O (H-AVP[hPhe]Y-OH) | 6.74 | –
CC(C)[C@H](NC(=O)[C@H](C)N)C(=O)N1CCC[C@H]1C(=O)N[C@H](C(=O)N[C@@H](Cc1ccc(O)cc1)C(=O)O)c1ccccc1 (H-AVP[Phg]Y-OH) | 7.52 | –
H-AVPLY-OH | 6.55 | –
C[C@@H](C(=O)N[C@H](C(=O)N1CCC[C@H]1C(=O)N[C@@H]1CCCc2ccccc21)C1CCCCC1)N(C)C | – | pEC50 [4]: < 4.30; pEC50 [2]: < 4.60; pEC50 [3]: 5.47; pEC50 [5]: < 4.30; pEC50 [6]: 6.00; pEC50 [7]: < 4.30; pEC50 (HL-60): 5.37; pEC50 (SK-MEL-5): 4.82
CC(C)[C@H](NC(=O)[C@H](C)N)C(=O)N(C)CC(=O)N[C@@H](Cc1ccccc1)C(=O)N[C@@H](Cc1ccc(O)cc1)C(=O)O (H-AV[Sar]FY-OH) | 6.22 | –
CC(C)[C@H](NC(=O)[C@H](C)N)C(=O)N1CCC1C(=O)N[C@@H](Cc1ccccc1)C(=O)N[C@@H](Cc1ccc(O)cc1)C(=O)O (some centres not stated) (H-AV[ξAze]FY-OH) | 6.92 | –
CN[C@@H](C)C(=O)N[C@H](C(=O)N1CCC[C@H]1C(=O)NC1c2ccccc2-c2ccccc21)C(C)(C)C | 7.40 | –
H-AGPFY-OH | 5.57 | –
CC(C)[C@H](NC(=O)[C@H](C)N)C(=O)N1CCC[C@H]1C(=O)N[C@@H](Cc1cccc2ccccc12)C(=O)N[C@@H](Cc1ccc(O)cc1)C(=O)O (H-AVP[1Nal]Y-OH) | 7.05 | –
CN[C@@H](C)C(=O)N[C@H](C(=O)N1CCC[C@H]1C(=O)N[C@@H]1CCc2ccccc21)C(C)(C)C | 7.70 | –
CC(C)C(NC(=O)[C@H](C)N)C(=O)N1CCC[C@H]1C(=O)N[C@@H](Cc1ccccc1)C(=O)N[C@@H](Cc1ccc(O)cc1)C(=O)O (single isomer, unassigned) | < 4.70 | –
CC(C)[C@H](NC(=O)[C@H](C)N)C(=O)N(C)C(C)C(=O)N[C@@H](Cc1ccccc1)C(=O)N[C@@H](Cc1ccc(O)cc1)C(=O)O (some centres not stated) (H-AV[ξNMeA]FY-OH) | 5.80 | –
CC(C)[C@H](NC(=O)[C@H](C)N)C(=O)NC(C)(C)C(=O)N[C@@H](Cc1ccccc1)C(=O)N[C@@H](Cc1ccc(O)cc1)C(=O)O (H-AV[Aib]FY-OH) | < 4.70 | –
CC(C)[C@@H](NC(=O)[C@H](C)N)C(=O)N1CCC[C@H]1C(=O)N[C@@H](Cc1ccccc1)C(=O)N[C@@H](Cc1ccc(O)cc1)C(=O)O | 7.05 and 6.92 | –
